Measured values as given in patent US20240343747A1, “Heteroaryl compounds as inhibitors of TYK2, composition and application thereof” (Accro Bioscience (HK) Limited, priority 2021, published 2024).

Legend:
[1] = target: hERG channel (Homo sapiens (Human), UniProt Q12809); experiment: in vitro; settings: human
Description: Chinese hamster ovary (CHO) cell line, CHO-hERG cells were used in this study. CHO-hERG cells were derived from Sophion Biosciences Inc. (Ballerup, Denmark) in Suzhou, China. The cell reserve fluid is frozen in liquid nitrogen tanks. Each batch of stored cell fluid is tested for mycoplasma contamination. The cells were no longer used after 30 generations.
The whole cell patch clamp technique was used to record hERG current at room temperature. The patch-clamp amplifier outputs signals through […] conversion and 2.9 KHz low-pass filtering. Data records were collected by Patchmaster Pro software.
Cells were planted in a cell recording tank and placed on an inverted microscope platform. One cell in the recording tank was randomly selected for experiment. The perfusion system was fixed on an inverted microscope platform and cells were continuously irrigated with ECS.
Manual patch clamp recording microelectrode was prepared with capillary glass tube, which was filled with intracellular fluid. On the day of the patch clamp test, the electrodes were prepared using a borosilicate glass tube (GC150TF-10, Harvard Apparatus Co. UK). The resistance is between 2-5 MΩ after the electrode is filled with ICS.
The clamping voltage was −80 mV, and the first step was depolarized to +60 mV for 850 ms to open the hERG channel. The voltage is then set to −50 mV and maintained for 1275 ms, resulting in a rebound current or tail current, the peak of which is measured and used for analysis. Finally, the voltage is restored to the clamping voltage (−80 mV). During the test, the command voltage program was repeated every 15 s.
At the beginning of recording the perfusion of the solvent control working solution, the test substance/positive control working solution to be tested can be poured after monitoring the tail current peak until more than 3 scanning curves are stable, until the inhibition of the test substance/positive control working solution to the hERG current peak reaches a stable state. Generally, the most recent three consecutive peak values of the current curve basically coincide as a criterion to judge whether the state is stable. After reaching a stable state, continue to pour one concentration of the test sample. One or more test subjects/positive controls, or multiple concentrations of the same drug, can be tested on a cell, and the different test subjects/positive controls need to be rinsed with a solvent control working fluid until the hERG current returns to more than 80% of its pre-drug level.
The concentration of positive control cisapride was 0.1 μM, and two cells were repeated.

[2] = target: JAK1 JH1 (Homo sapiens (Human), UniProt P23458); experiment: Competitive binding assay (kinase-tagged phage, qPCR), JAK1 JH1
Description: (§1) For most assays, kinase-tagged T7 phage strains were prepared in an E. coli host derived from the BL21 strain. E. coli were grown to log-phase and infected with T7 phage and incubated with shaking at 32° C. until lysis. The lysates were centrifuged and filtered to remove cell debris. The remaining kinases were produced in HEK-293 cells and subsequently tagged with DNA for qPCR detection. Streptavidin coated magnetic beads were treated with biotinylated small molecule ligands for 30 minutes at room temperature to generate affinity resins for kinase assays. The liganded beads were blocked with excess biotin and washed with blocking buffer (SeaBlock (Pierce), 1% BSA, 0.05% Tween 20, 1 mM DTT) to remove unbound ligand and to reduce non-specific binding. […] Test compounds were prepared as 111X stocks in 100% DMSO. Dissociation constants (Kds) were determined using an 11-point 3-fold compound dilution series with three DMSO control points. All compounds for Kd measurements are distributed by acoustic transfer (non-contact dispensing) in 100% DMSO. The compounds were then diluted directly into the assays such that the final concentration of DMSO was 0.9%. All reactions performed in polypropylene 384-well plate. Each was a final volume of 0.02 ml. The assay plates were incubated at room temperature with shaking for 1 hour and the affinity beads were washed with wash buffer (1×PBS, 0.05% Tween 20). The beads were then re-suspended in elution buffer (1×PBS, 0.05% Tween 20, 0.5 μM nonbiotinylated affinity ligand) and incubated at room temperature with shaking for 30 minutes. The kinase concentration in the eluates was measured by qPCR.
(§2) An 11-point 3-fold serial dilution of each test compound was prepared in 100% DMSO at 100× final test concentration and subsequently diluted to 1× in the assay (final DMSO concentration=1%). Most Kds were determined using a compound top concentration=30,000 nM. If the initial Kd determined was <0.5 nM (the lowest concentration tested), the measurement was repeated with a serial dilution starting at a lower top concentration.
(§3) Binding constants (Kds) were calculated with a standard dose-response curve using the Hill equation: […]
(§4) The Hill Slope was set to −1.
(§5) Curves were fitted using a non-linear least square fit with the Levenberg-Marquardt algorithm.

[3] = target: TYK2 JH2 (Homo sapiens (Human), UniProt P29597); experiment: Competitive binding assay (kinase-tagged phage, qPCR), TYK2 JH2
Description: as §1, §2, §3, §4, §5

[4] = target: TYK2 (Mus musculus (Mouse), UniProt Q9R117); experiment: Luciferase assay in L929 ISRE cells stimulated with IFN-α; type: cell-based; settings: IFN-α 100 ng/mL; for inhibition at 1 µM: read-out: Inhibitory activity % (1000 nM)
Description: • 1. L929 ISRE cells (5000 cells/well) were seeded on 96-well plates and incubated overnight at room temperature; • 2. The cells were pretreated by adding different concentrations (10 nM, 50 nM, 100 nM, 200 nM or 1000 nM) of the test compounds for 2 hours; • 3. Added IFN-α (100 ng/mL) to stimulate cells for 6 hours; • 4. Removed the upper medium, add PBS (100 μL) and washed, then removed PBS; • 5. Added PLB lysis solution (50 μL) to each well, shook the well for 15 minutes; • 6. Transferred PLB lysis solution (30 μL) to a new 96-well whiteboard, added LAR II reagent (LAR II), then quickly read the […]; • 7. Added Stop & Glo reagent (30 μL), then read the 450 nm OD value using the plate washer. • 8. The final results in Table 3 were the OD value in step 6/OD value in step 7.

[5] = target: JAK2 JH1 (Homo sapiens (Human), UniProt O60674); experiment: Competitive binding assay (kinase-tagged phage, qPCR), JAK2 JH1
Description: For most assays, kinase-tagged T7 phage strains were prepared in an E. coli host derived from the BL21 strain. E. coli were grown to log-phase and infected with T7 phage and incubated with shaking at 32° C. until lysis. The lysates were centrifuged and filtered to remove cell debris. The remaining kinases were produced in HEK-293 cells and subsequently tagged with DNA for qPCR detection. Streptavidin coated magnetic beads were treated with biotinylated small molecule ligands for 30 minutes at room temperature to generate affinity resins for kinase assays. The liganded beads were blocked with excess biotin and washed with blocking buffer (SeaBlock (Pierce), 1% BSA, 0.05% Tween 20, 1 mM DTT) to remove unbound ligand and to reduce non-specific binding. […] Test compounds were prepared as 111X stocks in 100% DMSO. Dissociation constants (Kds) were determined using an 11-point 3-fold compound dilution series with three DMSO control points. […] The kinase concentration in the eluates was measured by qPCR.
An 11-point 3-fold serial dilution of each test compound was prepared in 100% DMSO at 100× final test concentration and subsequently diluted to 1× in the assay (final DMSO concentration=1%). Most Kds were determined using a compound top concentration=30,000 nM. […]
as §3

[6] = system: production of CXCL-10 stimulated by IFNα in PBMC; experiment: ELISA: production of CXCL-10 stimulated by IFNα in PBMC; type: cell-based; settings: CXCL-10 production stimulated by IFNα in PBMC, ELISA
Description: • 1. Soak plate: Add 300 μL 1×washing solution and let stand for 30 seconds. After discarding the washing solution, dry the microporous plate on absorbent paper. • 2. Add standard: Add 100 μL of 2-fold standard to standard well. Add 100 μL standard dilution (serum/plasma sample) or culture medium (cell culture supernatant sample) to blank well. • 3. Add sample: Serum/plasma: Add 50 μL 1×assay buffer and 50 μL sample to sample well. Cell culture supernatant: Add 100 μL cell culture supernatant to sample well. • 4. Add detection antibody: Add 50 μL diluted detection antibody (1:100 diluted) to each well. Make sure steps 4, 5 and 6 are added continuously without interruption. The sampling process was completed within 15 minutes. • 5. Incubation: Use sealing plate film to seal the plate. shake at 300 rpm and incubate for 2 hours at room temperature. • 6. Washing: Discard the liquid, add 300 μL of washing solution and wash the plate 6 times. pat dry on blotting paper after each wash. To obtain the desired experimental performance, the residual liquid must be completely removed. • 7. Enzyme addition: Add 100 μL diluted horseradish peroxidase labeled streptavidin to each well (1:100 diluted). • 8. Incubation: Seal the plate with a new sealing film. shake at 300 rpm and incubate at room temperature for 45 minutes. • 9. Washing. Repeat step […]. • 10. Add substrate for color development: Add 100 μL of color development substrate TMB to each well, keep away from light, and incubate at room temperature for 5-30 minutes. • 11. Add Stop Solution: Add 100 μL stop solution to each well. The color changed from blue to yellow. If the color appears green or the color changes unevenly, gently tap the frame of the plate to mix well. • 12. Assay readout: Within 30 minutes, perform dual wavelength detection using a microplate reader to measure the OD at the absorption maximum at 450 nm and reference wavelengths at 570 nm or 630 nm. The calibrated OD value is the measured value at 450 nm minus the measured value at 570 nm or 630 nm.

[7] = system: TYK2/JAK1 pathway; experiment: Selectivity: TYK2/JAK1 pathway, IFN-α-induced p-STAT1 in human PBMC, western blot; type: cell-based; settings: IFN-α 100 ng/mL, western blot
Description: Commercial human PBMC (peripheral blood mononuclear cells) were centrifuged (400 g) for 10 min, counted and planted on 6-well plates (5 million/well). Then, the compounds to be tested were added for 2 hours and IFN-α (100 ng/mL) was added to stimulate cells for 15 minutes. Protein lysate was used to lysate cells, and BCA kit was used for protein quantification. Finally, p-STAT1/STAT1, P-TYK2/TYK2 and internal reference protein B-Actin were detected by Western blot.

[8] = system: JAK2/JAK2 pathway; experiment: Selectivity: JAK2/JAK2 pathway, TPO-induced p-STAT3 in MEG-1 cells, western blot; type: cell-based; settings: TPO 100 ng/mL
Description: MEG-1 cells were digested by trypsin, re-suspended in 1640 medium and counted. The compounds to be measured were added to 6 well plates (1 million/per well) for 2 hours, and then TPO (final concentration: 100 ng/mL) was added to stimulate cells for 30 minutes. The cells were collected and lysed with protein lysate. The protein was quantitatively tested by BCA kit. Finally, p-STAT3/STAT3 and internal reference protein β-actin were detected by western blot.

[9] = system: IL-23 induced psoriasis; experiment: IL-23 induced psoriasis in mice (ear thickness); type: in vivo; settings: oral gavage twice a day, 14 days, B41 10 and 30 mg/kg, BMS986165 10 mg/kg
Description: Recombinant human IL-23 (100 ng/time/mouse) was injected into the right ear of mice every two days starting from day 1 of the study. The administration group included 7 mice, with EtOH:TPGS:PEG300=[…] as vehicle, compound B41 (10 mg/kg, 30 mg/kg) or BMS986165 (10 mg/kg) orally gavage twice a day the night before the first injection of IL-23. The control group was injected with vehicle alone. The experiment lasted for 14 days. The thickness of the ear was measured with a micrometer every two days.

[10] = system: JAK1/JAK3 pathway; experiment: Selectivity: JAK1/JAK3 pathway, IL-2-induced p-STAT5 in human PBMC, western blot; type: cell-based; settings: IL-2 100 ng/mL
Description: Commercial human PBMC (peripheral blood mononuclear cells) were centrifuged (400 g) for 10 min, counted and seeded into 6-well plates (5 million/well). The compounds to be tested were added for 2 hours and then IL-2 (100 ng/mL) was added to stimulate cells for 15 minutes. Finally, p-STAT5/STAT5 and internal reference protein β-actin were detected by Western blot.

[11] = system: JAK1/JAK2 pathway; experiment: Selectivity: JAK1/JAK2 pathway, IFN-γ-induced p-STAT1 in HT-29 cells, western blot; type: cell-based; settings: IFN-γ 100 ng/mL
Description: HT-29 cells were digested by trypsin and suspended in DMEM medium and counted. The tested compounds were added into 6 well plates (400 000/per well) for 2 hours, then IFN-γ (100 ng/mL) was added to stimulate cells for 30 minutes. The cells were collected and lysed with protein lysate. The protein was quantitatively tested by BCA kit. Finally, p-STAT1/STAT1 and internal reference protein β-actin were detected by western blot.

TYK2, sequence (Q9R117 whole entry): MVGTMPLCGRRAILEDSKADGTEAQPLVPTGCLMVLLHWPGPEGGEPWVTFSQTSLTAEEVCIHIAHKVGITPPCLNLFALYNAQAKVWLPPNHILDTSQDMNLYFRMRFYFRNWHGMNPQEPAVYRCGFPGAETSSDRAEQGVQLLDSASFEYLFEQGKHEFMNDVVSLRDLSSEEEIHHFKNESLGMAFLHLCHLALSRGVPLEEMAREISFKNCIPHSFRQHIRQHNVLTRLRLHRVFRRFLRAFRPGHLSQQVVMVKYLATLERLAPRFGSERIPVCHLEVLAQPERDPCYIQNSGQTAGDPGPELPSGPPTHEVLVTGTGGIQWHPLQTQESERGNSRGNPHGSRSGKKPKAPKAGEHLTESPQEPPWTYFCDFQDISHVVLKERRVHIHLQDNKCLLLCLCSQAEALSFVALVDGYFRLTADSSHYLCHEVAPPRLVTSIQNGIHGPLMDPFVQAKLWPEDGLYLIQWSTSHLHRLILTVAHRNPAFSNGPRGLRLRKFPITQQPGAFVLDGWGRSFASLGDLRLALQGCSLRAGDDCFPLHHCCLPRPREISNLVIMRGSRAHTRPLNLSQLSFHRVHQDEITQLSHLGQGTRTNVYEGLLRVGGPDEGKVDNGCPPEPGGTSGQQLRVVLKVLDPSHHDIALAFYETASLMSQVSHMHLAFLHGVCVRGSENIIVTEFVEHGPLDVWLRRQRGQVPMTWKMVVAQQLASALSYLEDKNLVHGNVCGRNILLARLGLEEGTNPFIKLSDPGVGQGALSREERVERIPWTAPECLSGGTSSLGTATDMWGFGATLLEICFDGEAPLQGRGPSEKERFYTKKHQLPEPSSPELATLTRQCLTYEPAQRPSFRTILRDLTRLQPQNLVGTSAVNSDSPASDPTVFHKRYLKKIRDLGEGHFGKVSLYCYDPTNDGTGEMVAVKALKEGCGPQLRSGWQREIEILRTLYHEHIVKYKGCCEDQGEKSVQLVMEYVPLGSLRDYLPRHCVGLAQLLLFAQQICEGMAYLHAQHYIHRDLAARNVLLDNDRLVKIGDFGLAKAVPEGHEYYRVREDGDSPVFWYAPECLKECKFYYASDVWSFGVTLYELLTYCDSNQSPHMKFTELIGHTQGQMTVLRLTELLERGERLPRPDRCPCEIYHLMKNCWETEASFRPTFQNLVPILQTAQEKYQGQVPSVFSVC
TYK2 JH2, sequence (P29597 589-875): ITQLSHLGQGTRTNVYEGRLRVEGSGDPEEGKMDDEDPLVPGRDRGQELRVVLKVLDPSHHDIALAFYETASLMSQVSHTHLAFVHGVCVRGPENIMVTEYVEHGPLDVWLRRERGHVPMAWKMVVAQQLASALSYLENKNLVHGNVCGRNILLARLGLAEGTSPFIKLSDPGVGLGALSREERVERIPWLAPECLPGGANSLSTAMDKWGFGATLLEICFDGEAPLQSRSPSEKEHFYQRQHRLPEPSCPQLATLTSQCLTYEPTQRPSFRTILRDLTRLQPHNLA
JAK1 JH1, sequence (P23458 875-1153): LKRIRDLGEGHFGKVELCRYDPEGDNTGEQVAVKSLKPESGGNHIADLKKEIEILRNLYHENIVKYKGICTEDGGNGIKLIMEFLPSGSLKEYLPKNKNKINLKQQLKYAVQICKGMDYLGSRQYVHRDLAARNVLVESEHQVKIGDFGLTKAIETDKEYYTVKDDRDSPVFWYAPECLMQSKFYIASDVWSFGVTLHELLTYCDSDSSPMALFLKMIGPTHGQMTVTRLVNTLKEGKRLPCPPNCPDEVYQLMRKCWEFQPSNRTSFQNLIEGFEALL
JAK2 JH1, sequence (O60674 849-1124): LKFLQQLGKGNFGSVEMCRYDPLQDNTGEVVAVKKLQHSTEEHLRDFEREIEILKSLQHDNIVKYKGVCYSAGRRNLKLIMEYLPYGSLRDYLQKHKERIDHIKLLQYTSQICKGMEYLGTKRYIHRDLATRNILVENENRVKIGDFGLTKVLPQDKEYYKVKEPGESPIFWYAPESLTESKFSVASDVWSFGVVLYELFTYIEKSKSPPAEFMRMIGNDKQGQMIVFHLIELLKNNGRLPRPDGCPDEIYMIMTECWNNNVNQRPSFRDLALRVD
hERG channel, sequence (Q12809 whole entry): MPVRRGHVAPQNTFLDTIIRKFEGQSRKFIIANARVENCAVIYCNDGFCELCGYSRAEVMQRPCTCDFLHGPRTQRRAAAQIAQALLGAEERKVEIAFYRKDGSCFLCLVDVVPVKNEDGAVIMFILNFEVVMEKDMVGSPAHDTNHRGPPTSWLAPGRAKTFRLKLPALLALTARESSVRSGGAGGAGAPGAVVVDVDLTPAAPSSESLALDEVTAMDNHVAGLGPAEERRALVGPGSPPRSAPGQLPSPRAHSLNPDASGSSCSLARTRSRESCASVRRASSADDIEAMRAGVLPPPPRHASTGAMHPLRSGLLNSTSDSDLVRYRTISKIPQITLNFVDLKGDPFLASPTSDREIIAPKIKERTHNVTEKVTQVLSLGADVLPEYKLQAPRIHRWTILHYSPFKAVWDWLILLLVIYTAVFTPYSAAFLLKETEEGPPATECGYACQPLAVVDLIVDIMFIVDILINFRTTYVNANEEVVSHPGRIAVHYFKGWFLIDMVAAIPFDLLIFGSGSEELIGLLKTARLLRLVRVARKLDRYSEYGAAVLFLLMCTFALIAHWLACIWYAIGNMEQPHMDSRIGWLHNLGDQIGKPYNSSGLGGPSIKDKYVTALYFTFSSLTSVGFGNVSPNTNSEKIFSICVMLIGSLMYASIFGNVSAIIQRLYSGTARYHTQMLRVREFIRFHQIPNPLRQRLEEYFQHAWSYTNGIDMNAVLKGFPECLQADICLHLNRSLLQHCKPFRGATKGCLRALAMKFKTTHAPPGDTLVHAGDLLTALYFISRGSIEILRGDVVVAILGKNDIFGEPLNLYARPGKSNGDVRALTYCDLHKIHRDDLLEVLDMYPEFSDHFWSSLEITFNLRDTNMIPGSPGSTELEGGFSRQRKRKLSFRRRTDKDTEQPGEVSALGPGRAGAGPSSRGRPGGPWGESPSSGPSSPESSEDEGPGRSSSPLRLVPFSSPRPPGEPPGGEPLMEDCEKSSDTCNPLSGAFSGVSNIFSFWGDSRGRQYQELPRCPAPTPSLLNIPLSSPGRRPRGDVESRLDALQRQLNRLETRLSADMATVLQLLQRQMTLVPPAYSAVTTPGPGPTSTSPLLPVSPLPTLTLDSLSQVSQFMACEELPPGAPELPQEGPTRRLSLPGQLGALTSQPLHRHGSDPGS

Molecule | Kd [2] [nM] | Kd [3] [nM] | inhibition at 1 µM ([4]; 1000 nM) [%] | also measured
COc1cc(N)c(Cl)cc1C(=O)NC1CCN(CCCOc2ccc(F)cc2)CC1OC (stereo not drawn) [Cisapride, reference compound] | – | – | – | inhibition at 0.1 µM [1]: > 50%
CCC(=O)c1cnc(NC(=O)C2CC2)cc1Nc1cccc(-c2ccc(P(C)(C)=O)cc2)c1OC [Compound B3] | > 30000 | 0.4 | 88 | inhibition at 0.01 µM ([4]; 10 nM, read-out: Inhibitory activity % (10 nM)): 21%; inhibition at 0.1 µM ([4]; 100 nM, read-out: Inhibitory activity % (100 nM)): 46%
CCC(=O)c1cnc(NC(=O)C2CC2)cc1Nc1cccc(-c2ccc(P(C)(C)=O)cn2)c1OC [Compound B4] | > 30000 | 0.032 | 58 | –
CCC(=O)c1cnc(NC(=O)C2CC2)cc1Nc1cccc(-c2cnc(P(C)(C)=O)cn2)c1OC [Compound B5] | > 30000 | 0.095 | 80 | –
CCC(=O)c1cnc(NC(=O)C2CC2)cc1Nc1cccc(-c2ncc(P(C)(C)=O)cn2)c1OC [Compound B11] | > 30000 | 0.016 | 62 | –
CCC(=O)c1cnc(NC(=O)C2CC2)cc1Nc1nccc(-c2cc(P(=O)(C3CC3)C3CC3)n(C)n2)c1OC [Compound B38] | > 30000 | 0.0079 | 95 | Kd [5]: 11000 nM; IC50 [6]: 222 nM; inhibition of downstream STAT1 phosphorylation induced by IFN-α [7]: effectively inhibit
N#CC[C@H](C1CCCC1)n1cc(-c2ncnc3[nH]ccc23)cn1 [Ruxolitinib, reference compound] | – | – | – | effect on TPO-induced downstream STAT3 phosphorylation [8]: could inhibit JAK2/JAK2 pathway
BMS986165 [reference compound] | – | – | – | IC50 [6]: 56.8 nM; efficacy in IL-23 induced psoriasis (ear thickness) [9]: effectively inhibit and treat; effect on IL-2-induced downstream STAT5 phosphorylation [10]: no effect; Inhibitory activity % (50 nM) ([4]; 50 nM): 74%; Inhibitory activity % (200 nM) ([4]; 200 nM): 89%; Inhibitory activity % (1000 nM) ([4]; 1000 nM): 96%; effect on TPO-induced downstream STAT3 phosphorylation [8]: no effect; effect on downstream STAT1 phosphorylation induced by IFN-γ [11]: no effect
